Data set [1] concerns CD4+/CD45RO+ memory T cells. Nature of the data set: PBMC Memory T Cell Adhesion Assay. Format: cell-based, human. The method, then: PBMC Memory T Cell Adhesion Assay
Fresh CD4+/CD45RO+ memory T cells were isolated from human peripheral blood mononuclear cell (PBMC) donors by Aragen Bioscience Inc. (Morgan Hill, CA). The assay plate was prepared using IgG Fc capture antibody (donkey anti human) immobilized at 500 ng/well in 50 mM sodium bicarbonate buffer, pH 9.5, ON, 4 C onto a Greiner Fluotrac plate (100 ul per well). The plate was rinsed two time with Blocking Buffer (25 mM Tris HCl, pH7.5, 150 mM NaCl, 1.5% BSA, 0.05% Tween), and blocked with Blocking Buffer for 2 hours at 37 C or 5 hours at RT using 200 ul per well. The Blocking Buffer was removed and either MAdCAM-1 or VCAM-1 at 400 ng/well in Blocking Buffer was added and the plate incubated overnight at 4 C (100 ul per well). The plate was washed two times with Blocking Buffer, and rinsed once with 200 ul Binding Media (DMEM phenol red free, 10 mM HEPES, 1×Na pyruvate, 1× Glutamine, and supplemented with 1 mM MnC12 prior to use). To prepare cells, approximately 25 million CD4+/CD45RO+ memory T cells were counted by trypan blue exclusion using a haemocytometer to determine viability and cell count. The cells were transferred to a 50 ml conical tube, and centrifuged at 1200 rpm for 10 minute. The media was aspirated and the cell pellet resuspended in 15 ml Binding Media. The cells were centrifuged again and resuspended in the appropriate amount of Binding Media to be used for assays (50 ul of cells per well at 2× the final density). To each well, and equal volume (50 ul) of test compound was added and the plate was incubated for 1.5 hours at 37 C, 5% CO2. Each well was rinsed 3× with 150 ul per well of Binding Media. […] The plate was incubated at 37 C, 5% CO2, for 45 minutes. The plate was protected from light by using black adhesive seals. Fluorescence intensity was measured using a Molecular Devices Gemini EM Fluorescent Plate Reader (Ex 485/Em530, Bottom Read, Reading Sensitivity=20). IC50 curves are generated using Graph Pad Prism and the curves analyzed using analyzed using a non-linear regression (four parameters) algorithm. The log (concentration) versus RFU (Ex485/Em530) was plotted to determine IC50 values.

The nature of data set [2]: Simulated Intestinal Fluid (SIF) Stability Assay. Conditions: simulated gi fluid, porcine pancreatin. Format: in vitro ADME. Put shortly: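 Peptide at 22 μM final was incubated at 37° C in blank FaSSIF pH 6.5 with 1% porcine pancreatin. Timed samples were quenched in acetonitrile/methanol/formic acid with internal standard and analysed by LC-MS/MS. Half-lives came from first-order exponential fits of percent remaining.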

Data set [3] is described as follows: Simulated Gastric Fluid (SGF) Stability Assay. Format: in vitro ADME. Conditions: simulated gi fluid; porcine pepsin, pH 2, 37° C.; dimers, Table 7. As to the method: Simulated Gastric Fluid (SGF) Stability Assays
Studies were carried out in simulated gastric fluid (SGF) to evaluate intestinal stability of the peptide molecules of the instant invention. SGF was prepared by adding 20 mg NaCl, 32 mg porcine pepsin (MP Biochemicals, catalog 02102599), and 70 μl HCl to 10 ml water (final pH=2). Aliquots of SGF (0.5 ml each) were pre-warmed at 37° C. To start the reaction, 1 μl of peptide stock solution (10 mM in DMSO) was added to 0.5 ml SGF and thoroughly mixed such that the final peptide concentration was 20 μM. The reactions were incubated at 37° C. with gentle shaking. At each time point (0, 15, 30, 60 min) 50 μl aliquots were removed and added to 200 μl acetonitrile containing 0.1% formic acid to quench the reaction. Samples are stored at 4° C. until the end of the experiment and centrifuged at 10,000 rpm for 5 minutes. Aliquots of the supernatant were removed, diluted 1:1 into distilled water containing internal standard, and analyzed by LCMS/MS. Percent remaining at each timepoint was calculated based on the peak area response ratio of test to compound to internal standard. Time 0 was set to 100%, and all later timepoints were calculated relative to time 0. Half-lives were calculated by fitting to a first-order exponential decay equation using GraphPad.

The target of another data set is T1, RPMI 8866 cells (Homo sapiens, UniProt P13612+P26010).
T1 sequence (P13612 34-1032): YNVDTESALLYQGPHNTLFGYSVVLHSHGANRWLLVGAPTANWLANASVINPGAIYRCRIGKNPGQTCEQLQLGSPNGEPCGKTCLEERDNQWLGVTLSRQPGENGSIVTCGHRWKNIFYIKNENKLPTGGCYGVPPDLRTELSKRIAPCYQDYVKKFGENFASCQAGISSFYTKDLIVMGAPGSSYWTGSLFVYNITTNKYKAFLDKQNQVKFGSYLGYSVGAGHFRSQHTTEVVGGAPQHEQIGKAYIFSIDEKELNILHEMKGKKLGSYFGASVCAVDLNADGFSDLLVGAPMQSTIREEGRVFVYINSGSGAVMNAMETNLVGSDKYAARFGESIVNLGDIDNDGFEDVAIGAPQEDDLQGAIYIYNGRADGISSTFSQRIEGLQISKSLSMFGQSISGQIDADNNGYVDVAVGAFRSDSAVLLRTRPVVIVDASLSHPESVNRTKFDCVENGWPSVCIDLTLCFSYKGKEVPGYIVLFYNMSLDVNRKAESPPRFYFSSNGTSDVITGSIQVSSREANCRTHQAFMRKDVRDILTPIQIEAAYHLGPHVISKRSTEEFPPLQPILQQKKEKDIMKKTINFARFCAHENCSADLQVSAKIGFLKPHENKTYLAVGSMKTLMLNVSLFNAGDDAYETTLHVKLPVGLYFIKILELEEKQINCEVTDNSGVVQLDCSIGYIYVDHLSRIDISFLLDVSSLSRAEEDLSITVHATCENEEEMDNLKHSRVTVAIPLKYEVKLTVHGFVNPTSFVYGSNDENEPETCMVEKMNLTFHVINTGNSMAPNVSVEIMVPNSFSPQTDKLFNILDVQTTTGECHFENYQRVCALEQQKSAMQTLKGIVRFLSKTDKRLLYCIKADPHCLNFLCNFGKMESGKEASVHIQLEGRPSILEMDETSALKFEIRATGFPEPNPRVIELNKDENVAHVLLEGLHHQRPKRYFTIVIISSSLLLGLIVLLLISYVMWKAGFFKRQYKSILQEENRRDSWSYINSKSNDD
T1 sequence (P26010 20-798): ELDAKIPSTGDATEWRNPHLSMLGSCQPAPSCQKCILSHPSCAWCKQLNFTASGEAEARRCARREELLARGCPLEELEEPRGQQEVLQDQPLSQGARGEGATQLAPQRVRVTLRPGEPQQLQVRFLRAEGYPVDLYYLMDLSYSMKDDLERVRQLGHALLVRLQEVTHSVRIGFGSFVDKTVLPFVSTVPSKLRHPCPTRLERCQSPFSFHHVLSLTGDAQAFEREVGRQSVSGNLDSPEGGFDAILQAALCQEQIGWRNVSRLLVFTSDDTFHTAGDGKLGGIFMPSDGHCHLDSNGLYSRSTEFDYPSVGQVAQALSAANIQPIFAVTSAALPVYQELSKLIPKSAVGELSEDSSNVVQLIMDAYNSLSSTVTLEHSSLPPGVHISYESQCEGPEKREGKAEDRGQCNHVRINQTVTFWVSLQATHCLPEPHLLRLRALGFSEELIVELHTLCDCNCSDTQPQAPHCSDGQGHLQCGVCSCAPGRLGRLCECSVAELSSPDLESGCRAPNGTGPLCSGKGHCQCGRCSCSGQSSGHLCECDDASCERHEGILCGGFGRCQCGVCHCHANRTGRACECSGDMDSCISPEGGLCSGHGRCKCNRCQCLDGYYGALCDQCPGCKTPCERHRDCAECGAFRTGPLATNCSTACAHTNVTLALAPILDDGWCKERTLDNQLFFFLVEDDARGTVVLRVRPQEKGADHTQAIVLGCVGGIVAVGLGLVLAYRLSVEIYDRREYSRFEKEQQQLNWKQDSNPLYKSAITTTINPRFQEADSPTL
Kind of data set: α4β7-MAdCAM Cell Adhesion Assay. Format: cell-based. Conditions: thioether peptide dimers, Table 7; read-out: Cell-Adhesion A4B7. Put shortly:
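RPMI 8866 cells (200,000/well) in DMEM with 1 mM MnCl2 and 0.1% BSA were allowed to adhere 30-45 min at 37° C to plates coated with rh MAdCAM-1/Fc (200 ng/well) in presence of serially diluted peptide. After washing, bound cells quantified by MTT, absorbance 570 nm, cell-free background subtracted.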

Data set [4] is described as follows: Dithiothreitol (DTT) Redox Stability Assay. The class given is physicochemical. The settings on record: 0.5 mM DTT, room temperature; control peptide monomers, Table 8. The method, then: Studies were carried out under redox conditions to evaluate intestinal stability of the peptide molecules of the instant invention.
Dithiothreitol (DTT) Redox Stability Assay
The DTT stability assay was prepared by adding 5 μl of a 10 mM peptide stock solution in DMSO to 1 ml of 100 mM Tris-Cl, pH 7.5 (final peptide concentration is 50 μM). At time 0 min, 5 μl of a freshly thawed 100 mM DTT solution was added such that the final DTT concentration is 0.5 mM. The reactions were incubated at room temperature. At different time points up to 120 minutes, 50 μl aliquots were removed and the reaction was quenched by adding 10 ul of 5M acetic acid. To measure disappearance of the parent peptide, the quenched samples (30 μl) were analyzed by reverse phase HPLC and UV absorbance at 220 nm. Half-lives were calculated by fitting to a first-order exponential decay equation using Excel.

Setting [5] is: thioether peptide dimers, Table 7.
The mark [6] stands for this setting: control peptide monomers, Table 8.

Where a SMILES comes first, the peptide text is derived from it. Some results are limits rather than exact numbers.

For `CC(C)C[C@@H]1NC(=O)[C@H]([C@@H](C)O)NC(=O)[C@H](CC(=O)O)NC(=O)[C@H](CO)NC(=O)[C@H](CCCNC(=N)N)N(C)C(=O)c2ccccc2CSC(C)(C)[C@@H](C(=O)N[C@@H](Cc2c[nH]c3ccccc23)C(=O)N[C@H](CCC(=O)O)C(N)=O)NC1=O` [compound 98] (HELM PEPTIDE1{[meR].S.D.T.L.[Pen].W.[dE].[am]}|CHEM1{[O=C(c1ccccc1C[*:2])[*:1]]}$PEPTIDE1,CHEM1,1:R1-1:R1|PEPTIDE1,CHEM1,6:R3-1:R2$$$V2.0), the IC50 in data set [1] (thioether monomer peptides, Table 6) fell in the range of 100 to 1000 nM.
Broadly, the half-life is the time in which the quantity being followed falls by half. Higher therefore signals slow loss. On to `CC(C)C[C@@H]1NC(=O)[C@H]([C@@H](C)O)NC(=O)[C@H](CC(=O)O)NC(=O)[C@H](CO)NC(=O)[C@H](CCCNC(=N)N)N(C)C(=O)c2ccccc2CSC(C)(C)[C@@H](C(=O)N[C@@H](Cc2ccccc2)C(=O)N[C@H](CCC(=O)O)C(=O)N[C@H](CCCCN)C(N)=O)NC1=O` [compound 155] (HELM PEPTIDE1{[meR].S.D.T.L.[Pen].F.[dE].[dK].[am]}|CHEM1{[O=C(c1ccccc1C[*:2])[*:1]]}$PEPTIDE1,CHEM1,1:R1-1:R1|PEPTIDE1,CHEM1,6:R3-1:R2$$$V2.0), for which the half-life in data set [2] (37° C., dimers, Table 7) was more than 3 h; in data set [3], more than 3 h. The IC50 in data set [1] (setting [5]) lay within 25 to 100 nM.
`CC(C)C[C@@H]1NC(=O)[C@H]([C@@H](C)O)NC(=O)[C@H](CC(=O)O)NC(=O)[C@H](CO)NC(=O)[C@H](CCCNC(=N)N)N(C)C(=O)c2ccccc2CSC(C)(C)[C@@H](C(=O)N[C@@H](Cc2ccc(C(C)(C)C)cc2)C(=O)N[C@@H](CCC(=O)O)CC(=O)N[C@H](CCCCN)C(N)=O)NC1=O` [compound 222]: the IC50 (in data set [1] (setting [5]); on RPMI 8866 cells) was less than 25 nM in each case.
`CC(=O)N[C@H]1CSSC[C@@H](C(=O)NCC(=O)N[C@@H](CCC(=O)O)C(N)=O)NC(=O)[C@H](CC(C)C)NC(=O)[C@H]([C@@H](C)O)NC(=O)[C@H](CC(=O)O)NC(=O)[C@H](CO)NC(=O)[C@H](CCCNC(=N)N)NC1=O` [compound 385] (HELM PEPTIDE1{[ac].C.R.S.D.T.L.C.G.E.[am]}$PEPTIDE1,PEPTIDE1,2:R3-8:R3$$$V2.0; bridges inferred): in data set [2] (setting [6]), the half-life was less than 0.0167 h. Further, the “Redox stability (DTT)” value in data set [4] is recorded as approximately 3 min.
On the same counts, the results for `CC(=O)N[C@H]1CSSC[C@@H](C(N)=O)NC(=O)[C@H](CC(C)C)NC(=O)[C@H]([C@@H](C)O)NC(=O)[C@H](CC(=O)O)NC(=O)[C@H](CO)NC(=O)[C@H](CCCNC(=N)N)NC1=O` [compound 386] (HELM PEPTIDE1{[ac].C.R.S.D.T.L.C.[am]}$PEPTIDE1,PEPTIDE1,2:R3-8:R3$$$V2.0; bridges inferred) are less than 0.0167 h and approximately 3 min.
